Experimental data published in patent publication US11946027B2, “Systems and methods for monitoring behavior of cells and/or tissues in culturing media” (Purdue Research Foundation, priority 2019, dated 2024).

How the values were obtained:
[1] = hydrophilic and water-soluble; Doxorubicin Hydrochloride, Fisher; cited from earlier work
MCF7 cells [2] = assay: Impedimetric cytotoxicity of MCF7 cells on the scaffold system with Dox; type: cell-based; settings: 30 kHz
Experimental: The scaffold system remained afloat on the medium, wherein the recording electrodes were entirely surrounded with polyimide elastomers. The flexible conductors were ACF cables (HST-9805-210, Elform, Inc., USA) placed on the sponge-like PDMS buoyant member and wired to an external data acquisition system (E4980AL Precision LCR meter, Keysight Technologies, USA) through the air. […] From about 16 hours later, drastic increase of the impedance occurred due to the cell aggregation and continuous proliferation. This tendency was more obvious in the MCF7 cells because the population doubling time of MCF7 cells (about 29 hours) is shorter than that of SKOV3 cells (about 48 hours) and HUVEC cells (about 60 hours). Consistently, the impedance of the MCF7 cells increased proportionally to the cellular density (FIG. 3C).
(§1) The impedance was measured by using an LCR meter (Agilent 4294A, USA) with the voltage (between two adjacent recording electrodes) of about 1 mV for 48 hours at the frequencies of 1, 5, 10, 20, 30, 50, 100, 150, 200 and 250 kHz. The scaffold system was placed in the incubator (5% CO^2, 37° C.; Thermo Scientific, USA) and wired to the LCR meter located outside of the incubator via flexible ACF cables. The data was collected every 2 hours from the scaffold system.

MCF7 cells [3] = assay: Real-time impedance monitoring in three-layer stacked scaffold seeded with MCF7 cells, Dox introduced on the top; type: cell-based; settings: 1 mM Dox introduced on the top at 1-day incubation
Experimental: In this configuration, each layer of the scaffold system remains spaced apart a fixed distance of about 5 mm along the perimeter by using spacers made of PDMS.
as §1

cardiomyocytes = assay: ECG recording of cardiomyocytes on the scaffold in response to norepinephrine; type: cell-based, neonatal mice; settings: cardiomyocytes at day 8
Source text: The beating rate decreased from 288 bpm to 60 bpm and to 36 bpm, whereas the amplitude increased from 66 μV to 83 μV and to 511 μV at day 2, 6, and 8, respectively. The results imply that spontaneous contractions of the individual cells initially occurred, followed by stronger and more synchronized contractions as the cells become more in contact each other. […] A representative microscopy image in FIG. 4C highlights the embedded four-channel-multiplexed sensing electrodes with the cardiomyocytes at day 8 within the domain of 1.4×1.4 mm^2. The results in FIG. 4D indicate the synchronized beating rate (about 0.63 Hz), amplitude (638˜763 μV), and peak width (˜about 0.6 sec). 3D mapping results of the action potentials (FIG. 4E) obtained from the total 48 ECG sensors (4×4 array in each layer) reveal the spontaneous beating activities of the cardiomyocytes at day 2, 6, and 8 without showing any toxic effect.
For cardiomyocyte isolation, primary neonatal mice cardiomyocytes were prepared according to the Pierce Primary Cardiomyocyte Isolation Kit (Thermo Scientific, USA). Briefly, neonatal hearts were isolated from about 1 to 3 days old neonatal mice and placed into separate sterile microcentrifuge tubes containing 500 μL of ice cold Hank's Balanced Salt Solution (HBSS). […]

| Compound | solubility [1] | time after drug administration at which impedance started to decrease (MCF7 cells [2]; 100 μM Dox introduced at 1-day incubation) [h] | decrease of the impedance (MCF7 cells [2]; low drug administration 10 μM) | rate of impedance decrease following drug administration, bottom layer (MCF7 cells [3]; bottom scaffold layer) | rate of impedance decrease following drug administration, middle layer (MCF7 cells [3]; middle scaffold layer) | increase of beating rate (cardiomyocytes; addition of 100 μL of norepinephrine (bitartrate solution 10 μM) into the medium) | time after NE administration to increase of beating rate (cardiomyocytes; addition of 100 μL of norepinephrine into the medium) [min] |
| --- | --- | --- | --- | --- | --- | --- | --- |
| COc1cccc2c1C(=O)c1c(O)c3c(c(O)c1C2=O)C[C@@](O)(C(=O)CO)C[C@@H]3O[C@H]1C[C@H](N)[C@H](O)[C@H](C)O1 [Dox, doxorubicin] | about 50 mg/ml | ≤ 4 | no substantial decrease of the impedance | about 1.6 Ω/hr | about 5.4 Ω/hr | – | – |
| NC[C@H](O)c1ccc(O)c(O)c1 [norepinephrine] | – | – | – | – | – | nearly two-fold | ≤ 3 |
